The target of one data set is Cytochrome P450 2C19 (Homo sapiens, UniProt P33261). Put plainly: Inhibition of CYP2C19 in human microsome. Type of data set: ADME.
A further data set concerns the target Transporter (Rattus norvegicus, UniProt Q63380). Put plainly: Inhibition of rat NET-mediated uptake.
Another data set has as its target Cytochrome P450 3A5 (Homo sapiens, UniProt P20815). Put plainly: Inhibition of CYP3A5 in human microsome. Type of data set: ADME.
The next data set deals with T1, Cytochrome P450 1A1 (Homo sapiens, UniProt P04798).
T1 sequence (P04798 whole entry): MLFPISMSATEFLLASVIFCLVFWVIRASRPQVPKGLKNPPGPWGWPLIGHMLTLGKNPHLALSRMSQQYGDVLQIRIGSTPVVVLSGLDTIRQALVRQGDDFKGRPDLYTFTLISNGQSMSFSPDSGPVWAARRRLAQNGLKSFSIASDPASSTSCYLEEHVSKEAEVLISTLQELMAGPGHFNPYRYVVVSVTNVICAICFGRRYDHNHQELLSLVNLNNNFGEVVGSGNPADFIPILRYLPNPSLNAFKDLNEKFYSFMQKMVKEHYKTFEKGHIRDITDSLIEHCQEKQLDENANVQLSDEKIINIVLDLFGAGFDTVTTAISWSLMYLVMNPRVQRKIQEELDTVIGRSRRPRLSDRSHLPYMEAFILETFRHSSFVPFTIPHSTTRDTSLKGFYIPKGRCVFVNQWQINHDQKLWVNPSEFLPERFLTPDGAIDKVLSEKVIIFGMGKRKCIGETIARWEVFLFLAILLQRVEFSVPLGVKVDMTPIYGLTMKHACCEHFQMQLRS
The data set is described as follows: (§1) Inhibition of CYP1A1 in human microsome at 100 uM. To be noted: microsomes, 100 µM. It is filed as ADME, microsomes.

In a further data set the test system is Rattus norvegicus. The data set is described as follows: Wake promoting activity in Sprague-Dawley rat assessed as increase of wake duration at 100 mg/kg, ip after 4 hrs (reference value: 79.2 +/- 7.2 mins). It is filed as functional. The following applies: route intraperitoneal.
The next data set deals with Cytochrome P450 2D6 (Homo sapiens, UniProt P10635). Put plainly: Inhibition of CYP2D6 in human microsome. It is filed as ADME.
Sequence of Cytochrome P450 2D6 (P10635 whole entry): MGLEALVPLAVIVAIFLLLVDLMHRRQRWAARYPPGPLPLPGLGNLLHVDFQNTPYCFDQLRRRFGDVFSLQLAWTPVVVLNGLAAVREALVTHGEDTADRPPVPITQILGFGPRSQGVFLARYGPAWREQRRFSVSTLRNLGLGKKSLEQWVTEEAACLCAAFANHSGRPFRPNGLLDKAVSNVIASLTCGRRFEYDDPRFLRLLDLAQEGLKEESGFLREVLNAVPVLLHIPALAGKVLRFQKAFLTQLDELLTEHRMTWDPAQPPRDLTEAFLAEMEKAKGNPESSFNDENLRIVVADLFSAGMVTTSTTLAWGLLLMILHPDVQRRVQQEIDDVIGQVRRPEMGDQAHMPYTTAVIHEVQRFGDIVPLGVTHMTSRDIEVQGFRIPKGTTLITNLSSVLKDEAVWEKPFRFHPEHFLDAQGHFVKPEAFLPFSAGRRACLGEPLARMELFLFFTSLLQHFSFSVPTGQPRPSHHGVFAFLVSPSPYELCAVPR
The target of the next data set is Cytochrome P450 2C9 (Homo sapiens, UniProt P11712). Put plainly: Inhibition of CYP2C9 in human microsome. Type of data set: ADME.
Sequence of Cytochrome P450 2C9 (P11712 whole entry): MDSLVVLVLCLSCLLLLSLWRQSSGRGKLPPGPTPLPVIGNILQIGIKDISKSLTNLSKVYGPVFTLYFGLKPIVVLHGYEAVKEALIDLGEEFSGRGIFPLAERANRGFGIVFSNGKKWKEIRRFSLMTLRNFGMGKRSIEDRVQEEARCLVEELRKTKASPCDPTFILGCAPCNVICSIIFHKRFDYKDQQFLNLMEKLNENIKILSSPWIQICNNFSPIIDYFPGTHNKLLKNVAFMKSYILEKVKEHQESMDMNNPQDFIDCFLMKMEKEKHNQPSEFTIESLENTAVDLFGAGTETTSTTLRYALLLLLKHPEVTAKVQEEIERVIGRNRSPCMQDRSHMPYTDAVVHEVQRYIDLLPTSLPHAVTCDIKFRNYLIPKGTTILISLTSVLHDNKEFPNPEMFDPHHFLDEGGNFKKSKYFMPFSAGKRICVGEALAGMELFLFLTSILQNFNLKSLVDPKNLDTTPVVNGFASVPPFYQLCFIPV
Data set [1] has as its target T2, Sodium-dependent dopamine transporter (Rattus norvegicus, UniProt P23977). Put plainly: Inhibition of rat DAT-mediated uptake.
Data set [2] deals with Sodium-dependent serotonin transporter (Rattus norvegicus, UniProt P31652). The data set is described as follows: Inhibition of rat SERT-mediated uptake.
Sequence of Sodium-dependent serotonin transporter (P31652 whole entry): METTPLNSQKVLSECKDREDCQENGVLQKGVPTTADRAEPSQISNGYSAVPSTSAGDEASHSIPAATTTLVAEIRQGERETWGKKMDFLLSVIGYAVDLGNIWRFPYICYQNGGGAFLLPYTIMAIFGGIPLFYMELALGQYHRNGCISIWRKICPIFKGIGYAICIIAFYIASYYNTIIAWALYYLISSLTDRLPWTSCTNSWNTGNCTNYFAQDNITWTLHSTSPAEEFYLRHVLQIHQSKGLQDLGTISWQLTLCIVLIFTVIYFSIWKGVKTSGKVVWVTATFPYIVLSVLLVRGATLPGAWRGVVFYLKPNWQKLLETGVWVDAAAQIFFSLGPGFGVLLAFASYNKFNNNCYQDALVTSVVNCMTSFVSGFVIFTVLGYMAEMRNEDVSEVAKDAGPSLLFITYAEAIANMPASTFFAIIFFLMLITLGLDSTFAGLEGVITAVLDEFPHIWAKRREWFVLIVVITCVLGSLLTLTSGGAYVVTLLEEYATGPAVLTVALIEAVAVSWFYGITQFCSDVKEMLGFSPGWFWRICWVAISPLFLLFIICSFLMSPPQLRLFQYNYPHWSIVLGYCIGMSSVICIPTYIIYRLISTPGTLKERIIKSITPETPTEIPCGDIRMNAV
For data set [3], the target named is T2, Sodium-dependent dopamine transporter. The data set is described as follows: Inhibition of rat DAT.
The target of the next data set is Cytochrome P450 3A4 (Homo sapiens, UniProt P08684). Put plainly: Inhibition of CYP3A4 in human microsome. It is filed as ADME.
Sequence of Cytochrome P450 3A4 (P08684 whole entry): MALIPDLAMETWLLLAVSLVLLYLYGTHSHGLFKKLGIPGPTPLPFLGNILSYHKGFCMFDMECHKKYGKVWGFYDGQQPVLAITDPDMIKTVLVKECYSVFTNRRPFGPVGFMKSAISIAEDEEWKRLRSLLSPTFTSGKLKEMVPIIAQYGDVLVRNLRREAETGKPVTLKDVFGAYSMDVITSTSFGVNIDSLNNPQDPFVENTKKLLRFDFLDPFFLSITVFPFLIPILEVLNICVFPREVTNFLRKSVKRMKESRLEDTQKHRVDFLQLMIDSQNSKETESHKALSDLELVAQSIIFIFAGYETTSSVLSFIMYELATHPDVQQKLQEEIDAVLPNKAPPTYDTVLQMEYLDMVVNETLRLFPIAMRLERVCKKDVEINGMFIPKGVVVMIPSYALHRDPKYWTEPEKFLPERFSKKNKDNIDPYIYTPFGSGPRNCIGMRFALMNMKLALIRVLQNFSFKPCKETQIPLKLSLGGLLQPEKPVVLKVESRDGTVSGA
Another data set deals with T3, Cytochrome P450 1A2 (Homo sapiens, UniProt P05177).
T3 sequence (P05177 whole entry): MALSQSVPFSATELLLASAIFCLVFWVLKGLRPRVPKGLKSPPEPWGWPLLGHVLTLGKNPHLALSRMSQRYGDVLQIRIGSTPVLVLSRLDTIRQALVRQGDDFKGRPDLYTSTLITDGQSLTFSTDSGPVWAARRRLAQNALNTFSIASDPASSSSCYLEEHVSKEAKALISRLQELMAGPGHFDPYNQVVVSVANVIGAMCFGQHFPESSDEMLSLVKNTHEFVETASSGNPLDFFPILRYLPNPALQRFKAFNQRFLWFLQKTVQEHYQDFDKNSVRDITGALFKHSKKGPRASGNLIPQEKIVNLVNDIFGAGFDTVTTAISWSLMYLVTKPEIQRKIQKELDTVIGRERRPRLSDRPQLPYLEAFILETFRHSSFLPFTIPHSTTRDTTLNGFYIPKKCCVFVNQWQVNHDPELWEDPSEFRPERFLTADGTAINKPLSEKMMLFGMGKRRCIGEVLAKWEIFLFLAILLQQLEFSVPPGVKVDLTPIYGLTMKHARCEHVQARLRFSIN
Put plainly: (§2) Inhibition of CYP1A2 in human microsome at 100 uM. Type of data set: ADME, microsomes. To be noted: microsomes, 100 µM.

For data set [4], the target named is Transporter (Rattus norvegicus) (UniProt Q63380). The data set is described as follows: Inhibition of rat NET at 10 uM.
Sequence of Transporter (Rattus norvegicus) (Q63380 as listed by the source): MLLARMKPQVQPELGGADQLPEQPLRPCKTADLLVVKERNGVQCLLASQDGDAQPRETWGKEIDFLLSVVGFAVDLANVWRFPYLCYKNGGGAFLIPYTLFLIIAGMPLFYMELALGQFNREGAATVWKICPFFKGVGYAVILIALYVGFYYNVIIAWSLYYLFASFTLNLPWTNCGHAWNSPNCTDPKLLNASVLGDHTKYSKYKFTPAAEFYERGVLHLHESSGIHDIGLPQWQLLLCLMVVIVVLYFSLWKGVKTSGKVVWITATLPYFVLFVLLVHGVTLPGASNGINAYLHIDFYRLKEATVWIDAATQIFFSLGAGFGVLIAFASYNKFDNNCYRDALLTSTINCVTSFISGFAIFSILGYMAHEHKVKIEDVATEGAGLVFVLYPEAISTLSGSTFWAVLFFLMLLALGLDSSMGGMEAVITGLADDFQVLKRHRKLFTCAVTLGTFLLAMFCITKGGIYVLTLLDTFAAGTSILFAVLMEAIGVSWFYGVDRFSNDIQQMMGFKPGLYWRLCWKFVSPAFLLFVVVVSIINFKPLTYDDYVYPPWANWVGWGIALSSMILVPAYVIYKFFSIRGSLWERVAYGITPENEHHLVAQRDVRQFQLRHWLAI
Data set [5] addresses Sodium-dependent serotonin transporter (Rattus norvegicus) (UniProt P31652). Put plainly: Inhibition of rat SERT at 10 uM.
The next data set deals with T4, CYP1A1 (Homo sapiens, UniProt P04798).
T4 sequence (P04798 whole entry): T1 sequence (P04798 whole entry)
Described as §1. Type of data set: ADME, microsomes. To be noted: human microsomes.

The target in the next data set is T5, CYP1A2 (Homo sapiens, UniProt P05177).
T5 sequence (P05177 whole entry): T3 sequence (P05177 whole entry)
The description is as §2. Type of data set: ADME, microsomes. To be noted: human microsomes.

The structures appear in SMILES notation. Some results are limits rather than exact numbers.

T2 sequence (P23977 whole entry): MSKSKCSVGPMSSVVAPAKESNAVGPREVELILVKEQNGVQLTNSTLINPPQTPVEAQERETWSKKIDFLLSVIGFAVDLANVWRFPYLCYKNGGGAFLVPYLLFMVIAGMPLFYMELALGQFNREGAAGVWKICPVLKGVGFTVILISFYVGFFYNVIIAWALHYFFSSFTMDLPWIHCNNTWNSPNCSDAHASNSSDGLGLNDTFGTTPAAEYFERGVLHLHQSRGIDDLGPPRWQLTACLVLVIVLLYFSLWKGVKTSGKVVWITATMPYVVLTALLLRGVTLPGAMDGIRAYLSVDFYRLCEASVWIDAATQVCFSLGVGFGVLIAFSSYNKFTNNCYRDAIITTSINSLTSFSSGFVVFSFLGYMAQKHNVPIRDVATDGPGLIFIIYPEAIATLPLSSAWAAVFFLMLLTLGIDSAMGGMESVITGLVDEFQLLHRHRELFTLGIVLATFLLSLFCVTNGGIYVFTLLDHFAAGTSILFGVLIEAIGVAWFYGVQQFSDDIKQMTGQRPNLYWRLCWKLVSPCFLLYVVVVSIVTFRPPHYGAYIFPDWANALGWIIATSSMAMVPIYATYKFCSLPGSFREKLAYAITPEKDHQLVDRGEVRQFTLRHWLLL
Sequence of Sodium-dependent serotonin transporter (Rattus norvegicus) (P31652 whole entry): as the sequence (P31652 whole entry) above
Sequence of Cytochrome P450 2C19 (P33261 whole entry): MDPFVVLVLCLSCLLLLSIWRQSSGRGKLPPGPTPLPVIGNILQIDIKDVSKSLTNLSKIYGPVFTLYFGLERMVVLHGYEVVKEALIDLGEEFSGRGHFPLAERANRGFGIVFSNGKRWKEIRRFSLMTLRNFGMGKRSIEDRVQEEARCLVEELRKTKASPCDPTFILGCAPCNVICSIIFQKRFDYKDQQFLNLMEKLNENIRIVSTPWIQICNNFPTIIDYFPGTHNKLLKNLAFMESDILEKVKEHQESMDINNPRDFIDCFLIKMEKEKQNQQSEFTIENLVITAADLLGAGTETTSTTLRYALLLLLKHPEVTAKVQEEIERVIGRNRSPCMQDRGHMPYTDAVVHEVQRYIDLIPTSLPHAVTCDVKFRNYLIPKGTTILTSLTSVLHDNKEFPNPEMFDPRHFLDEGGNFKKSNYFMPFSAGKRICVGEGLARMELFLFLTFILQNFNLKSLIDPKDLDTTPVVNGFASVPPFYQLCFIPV
Sequence of Transporter (Q63380 whole entry): as the sequence (Q63380 as listed by the source) above
Sequence of Cytochrome P450 3A5 (P20815 whole entry): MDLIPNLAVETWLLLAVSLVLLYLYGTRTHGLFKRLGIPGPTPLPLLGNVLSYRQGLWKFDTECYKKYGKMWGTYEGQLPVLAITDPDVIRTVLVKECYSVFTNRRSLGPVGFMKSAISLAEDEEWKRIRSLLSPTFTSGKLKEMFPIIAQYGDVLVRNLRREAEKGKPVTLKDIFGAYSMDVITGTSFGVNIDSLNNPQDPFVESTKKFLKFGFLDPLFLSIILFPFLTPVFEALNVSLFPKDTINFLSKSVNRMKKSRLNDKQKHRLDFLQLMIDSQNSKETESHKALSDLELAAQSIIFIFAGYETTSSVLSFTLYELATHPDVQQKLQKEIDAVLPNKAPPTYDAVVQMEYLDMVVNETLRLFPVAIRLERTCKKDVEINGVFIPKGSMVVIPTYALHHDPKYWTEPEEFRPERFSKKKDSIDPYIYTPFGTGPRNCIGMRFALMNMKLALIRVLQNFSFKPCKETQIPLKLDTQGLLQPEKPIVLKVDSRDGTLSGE

One may read the IC50 as the concentration that inhibits the measured activity by half. A lower IC50 goes with higher potency. Take `NC(=O)C[S+]([O-])Cc1ccccc1-c1ccc(Cl)cc1` (single isomer, unassigned; (+)) [listing 1 of 2 here]: the IC50 on Cytochrome P450 2C19 is 112 µM; at Transporter, 32 µM; against Cytochrome P450 3A5, 159 µM; against Cytochrome P450 2D6, 151 µM; at Cytochrome P450 2C9, 129 µM; in [1] it was 3.8 µM. Besides, the results for the IC50 (in data set [2]; in data set [3]; on Cytochrome P450 3A4) were greater than 300 µM, 4.2 µM and 159 µM, respectively. Besides, the “inhibition (INH)” value at Cytochrome P450 1A1 and against Cytochrome P450 1A2 was 20% each time. In the data set on Rattus norvegicus, the Time was found to be 227.1 min.

One may read the inhibition as the share of the control response that was lost under treatment. A high value points to a response far below the control. As for `NC(=O)C[S+]([O-])Cc1ccccc1-c1ccc(Cl)cc1` (single isomer, unassigned; (+)) [listing 2 of 2 here], the inhibition in data set [4] was determined as 12%; in data set [5], 4%.

`NC(=O)C[S+]([O-])Cc1ccccc1-c1ccc(Cl)cc1` (single isomer, unassigned; (-)) [listing 1 of 2 here]: the IC50 against Cytochrome P450 2C19 was 174 µM; against Transporter, 11 µM; on Cytochrome P450 3A5 it was 139 µM; against Cytochrome P450 2D6, 177 µM; against Cytochrome P450 2C9, 233 µM; in [2] it was greater than 300 µM. Further, the results for the IC50 (in data set [3]; on Cytochrome P450 3A4) were 0.4 µM and 139 µM, respectively. In addition, the inhibition at 100 µM at CYP1A1 and against CYP1A2 was 14% throughout. Besides, the Time in the data set with Rattus norvegicus is recorded as 238.5 min.

For the compound `NC(=O)C[S+]([O-])Cc1ccccc1-c1ccc(Cl)cc1` (single isomer, unassigned; (-)) [listing 2 of 2 here], the inhibition in [4] is 16%; in data set [5] it was 3%.
